Here are results for 4 compounds from patent US20100173968A1, “SUB-TYPE SELECTIVE AZABICYCLOALKANE DERIVATIVES” (TARGACEPT, INC., priority 2007, published 2010).

For one test, the target named is Human α4β2 (Homo sapiens, UniProt P17787+P43681). The experiment in a line: Binding at human α4β2 (Ki); method not described.
A further test addresses α7 nAChR Subtype (Rattus norvegicus, UniProt Q05941). In words: Radioligand binding at α7 nAChR subtype, inhibition of [3H]MLA binding, rat hippocampus membranes (HTS at 5 μM, then Ki). Particulars: for inhibition at 5 µM: read-out: α7 HTS outcome (α7 Ki).
In a further test the target is α4β2 nAChR Subtype (Rattus norvegicus, UniProt P09483+P12390). In words: Radioligand binding at α4β2 nAChR subtype, inhibition of [3H]nicotine binding, rat cerebral cortex membranes. The note with it: [3H]nicotine 5 nM. The protocol: The [^3H]nicotine (Specific Activity=81.5 Ci/mmol) was obtained from NEN Research Products. The binding of [^3H]nicotine was measured using a 3 h incubation at 4° C. […] Each filter was washed with ice-cold buffer (3×1 mL).
Each concentration was replicated in triplicate.

Test [1] in a line: NOR (novel object recognition) task. It is filed as in vivo. Particulars: orally, in rats. The protocol: Certain exemplified compounds were assessed in the NOR (novel object recognition) task. This illustrates efficacy and potency of the compounds of the present invention in treating cognitive deficits, attention disorders, and dementias, and the potential of these compounds for human therapy.

pKi: −log10 of the molar value. Where two headings read alike, the source gives them in different places.

Chain of Human α4β2 (P43681 29-627 limits assumed): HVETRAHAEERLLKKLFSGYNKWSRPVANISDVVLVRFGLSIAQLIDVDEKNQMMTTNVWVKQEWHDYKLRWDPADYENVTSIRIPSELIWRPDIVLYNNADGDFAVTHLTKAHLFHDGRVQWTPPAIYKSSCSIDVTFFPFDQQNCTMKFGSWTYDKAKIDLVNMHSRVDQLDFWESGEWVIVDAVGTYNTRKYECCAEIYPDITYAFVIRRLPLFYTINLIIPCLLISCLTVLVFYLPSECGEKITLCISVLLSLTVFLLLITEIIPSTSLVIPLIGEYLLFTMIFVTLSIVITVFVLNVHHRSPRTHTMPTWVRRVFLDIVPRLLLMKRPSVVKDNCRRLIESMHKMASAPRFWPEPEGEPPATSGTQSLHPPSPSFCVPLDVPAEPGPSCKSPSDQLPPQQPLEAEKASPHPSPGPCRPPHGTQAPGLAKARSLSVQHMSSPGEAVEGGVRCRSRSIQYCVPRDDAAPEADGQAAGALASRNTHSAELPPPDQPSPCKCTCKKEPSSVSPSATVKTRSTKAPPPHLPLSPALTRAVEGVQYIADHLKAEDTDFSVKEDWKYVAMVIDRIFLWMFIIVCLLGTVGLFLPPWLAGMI
Chain of Human α4β2 (P17787 26-502): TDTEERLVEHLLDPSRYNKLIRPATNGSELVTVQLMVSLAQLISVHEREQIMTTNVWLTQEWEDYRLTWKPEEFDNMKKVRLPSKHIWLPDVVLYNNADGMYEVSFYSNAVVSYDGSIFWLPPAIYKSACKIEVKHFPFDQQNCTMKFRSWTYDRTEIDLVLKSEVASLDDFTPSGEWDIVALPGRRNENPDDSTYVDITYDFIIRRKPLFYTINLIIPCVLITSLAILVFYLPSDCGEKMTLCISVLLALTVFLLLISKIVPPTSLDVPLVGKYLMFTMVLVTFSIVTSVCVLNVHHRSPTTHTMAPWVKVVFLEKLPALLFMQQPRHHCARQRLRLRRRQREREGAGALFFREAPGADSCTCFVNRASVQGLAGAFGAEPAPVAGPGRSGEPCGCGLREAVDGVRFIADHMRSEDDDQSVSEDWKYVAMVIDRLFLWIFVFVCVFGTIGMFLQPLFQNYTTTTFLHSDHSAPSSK
Chain of α7 nAChR Subtype (Q05941 23-502): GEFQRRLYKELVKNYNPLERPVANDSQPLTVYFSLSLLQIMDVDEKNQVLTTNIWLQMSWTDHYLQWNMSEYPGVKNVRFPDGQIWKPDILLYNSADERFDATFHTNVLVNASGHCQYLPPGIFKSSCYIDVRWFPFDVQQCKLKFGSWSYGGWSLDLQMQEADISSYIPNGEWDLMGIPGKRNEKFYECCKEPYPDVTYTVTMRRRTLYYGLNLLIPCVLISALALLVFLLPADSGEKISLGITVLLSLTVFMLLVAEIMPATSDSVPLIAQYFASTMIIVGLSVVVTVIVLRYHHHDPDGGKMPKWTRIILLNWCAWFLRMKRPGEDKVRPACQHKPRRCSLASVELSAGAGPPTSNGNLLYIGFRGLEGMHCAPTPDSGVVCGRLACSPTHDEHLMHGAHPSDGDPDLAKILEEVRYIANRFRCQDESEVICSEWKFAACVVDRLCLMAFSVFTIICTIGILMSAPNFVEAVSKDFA
Chain of α4β2 nAChR Subtype (P09483 31-630): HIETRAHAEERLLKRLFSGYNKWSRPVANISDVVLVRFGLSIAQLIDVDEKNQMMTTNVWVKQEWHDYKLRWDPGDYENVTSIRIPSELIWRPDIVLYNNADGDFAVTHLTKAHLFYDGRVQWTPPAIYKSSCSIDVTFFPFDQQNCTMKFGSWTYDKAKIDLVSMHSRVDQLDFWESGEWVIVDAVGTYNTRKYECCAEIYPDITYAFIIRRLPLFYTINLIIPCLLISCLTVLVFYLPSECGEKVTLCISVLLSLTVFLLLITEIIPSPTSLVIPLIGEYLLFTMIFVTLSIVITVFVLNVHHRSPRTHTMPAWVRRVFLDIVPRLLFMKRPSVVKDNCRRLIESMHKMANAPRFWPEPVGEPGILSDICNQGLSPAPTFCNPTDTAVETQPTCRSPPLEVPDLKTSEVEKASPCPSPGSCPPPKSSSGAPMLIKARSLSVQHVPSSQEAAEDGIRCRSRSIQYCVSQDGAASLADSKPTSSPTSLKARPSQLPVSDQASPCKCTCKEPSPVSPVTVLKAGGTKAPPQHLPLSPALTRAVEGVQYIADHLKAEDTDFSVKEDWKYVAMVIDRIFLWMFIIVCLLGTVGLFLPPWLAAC
Chain of α4β2 nAChR Subtype (P12390 25-500): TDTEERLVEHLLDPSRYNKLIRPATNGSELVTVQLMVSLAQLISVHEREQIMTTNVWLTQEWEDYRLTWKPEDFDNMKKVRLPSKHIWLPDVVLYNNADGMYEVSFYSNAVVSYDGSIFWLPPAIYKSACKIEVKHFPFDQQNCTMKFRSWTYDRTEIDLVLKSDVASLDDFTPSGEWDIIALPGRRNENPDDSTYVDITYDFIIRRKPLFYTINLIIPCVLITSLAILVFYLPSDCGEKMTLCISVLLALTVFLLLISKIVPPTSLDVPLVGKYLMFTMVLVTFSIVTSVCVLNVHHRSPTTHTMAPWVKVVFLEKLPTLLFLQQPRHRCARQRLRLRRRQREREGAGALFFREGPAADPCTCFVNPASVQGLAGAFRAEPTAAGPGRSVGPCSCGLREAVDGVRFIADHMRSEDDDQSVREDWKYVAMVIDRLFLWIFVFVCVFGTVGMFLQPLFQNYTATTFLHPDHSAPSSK

As to `COC(=O)C1C[C@H]2CNC[C@H]2C1` (mixture of isomers) [Compound A, methyl 3-azabicyclo[3.3.0]octane-7-carboxylate], the figures for the pKi on Human α4β2, on α7 nAChR Subtype and at α4β2 nAChR Subtype (read-out: Rat α4β2 Ki) were 8.10, < 5.00 and 7.70, respectively. The “activity in the NOR task (recognition index)” value in test [1] (dose of 0.1 mg/kg, FIG. 1) is listed as “active”.

As for `CNC(=O)C1CC2CNCC(C2)C1` (centres unmarked) [Compound B, N-methyl-3-azabicyclo[3.3.1]nonane-7-carboxamide], the pKi at Human α4β2 was 8.70; on α7 nAChR Subtype it was < 5.00; on α4β2 nAChR Subtype (read-out: Rat α4β2 Ki), 8.22. Besides, the “activity in the NOR task (recognition index)” value in test [1] (dose of 1 mg/kg, FIG. 2) is “active”.

As for `O=C(c1ccco1)[C@@H]1C[C@H]2CNC[C@H]2C1` [trans-2-furanyl(3-azabicyclo[3.3.0]oct-7-yl)methanone], the pKi on Human α4β2 is 6.65; on α4β2 nAChR Subtype (Rat α4β2 Ki), 6.33. Further, the inhibition at 5 µM at α7 nAChR Subtype is < 50%.

Turning to `CN(C)C(=O)[C@@H]1C[C@H]2CNC[C@H]2C1` [trans-N,N-dimethyl-3-azabicyclo[3.3.0]octane-7-carboxamide], the pKi on Human α4β2 is 6.95; on α4β2 nAChR Subtype (Rat α4β2 Ki) it was 7.54. Moreover, at α7 nAChR Subtype, the inhibition at 5 µM is < 50%.
